Assay results: PMC4478171, “Synthesis, characterization, and preclinical validation of a PET radiopharmaceutical for interrogating Aβ (β-amyloid) plaques in Alzheimer’s disease” (EJNMMI Research, 2015)

How the values were obtained:
Aβ1-42 fibrils = molecular target: T1, Aβ1-42 fibrils (Homo sapiens, UniProt P05067); test: Saturation radioligand binding to preformed Aβ1-42 fibrils
T1 construct: synthetic Aβ1-42 peptide (1 mg) (Bachem, Torrance, CA); purchased Bachem, Torrance, CA; host or cells: chemical synthesis
Method: Aβ1-42 fibrils were obtained using literature procedures described earlier. Briefly, synthetic Aβ1-42 peptide (1 mg) (Bachem, Torrance, CA) was initially dissolved in DMSO (50 μL) and diluted with the addition of mQ-H2O (925 μL). Finally, 1 M Tris-HCl (25 μL; pH 7.6) was added to the peptide solution to obtain a final peptide concentration (222 μM; 1 mg/mL). Thereafter, the peptide solution was incubated for 30 h at 37°C with shaking at 1,000 rpm in an Eppendorf Thermomixer. The fibril formation was confirmed by ThioT fluorescence. For determining the concentration of fibrils, the fibril reaction mix was centrifuged at 15,000×g for 15 min to separate the fibrils from the monomer. The concentration of Aβ monomer in the supernatant was determined in a BCA protein assay. […] The exact hot:cold (^18F-7B:7A) ratio was measured in each experiment by counting an aliquot of a sample (2 μL) of the radioligand preparation in a scintillation counter. Binding of ^18F-7B to human brain homogenates was assessed by incubating samples of insoluble fraction (5-μg insoluble protein/well) from AD subjects, with increasing concentrations of ^18F-7B (1.5 to 100 nM). Nonspecific binding was determined in parallel experiments utilizing 7A (2.5 μM) for Aβ1-42 fibrils and 7A (5 μM) for AD tissue as a competitor. […] Bmax values were calculated in pmol/gram wet weight of brain tissue.

[1] = Biodistribution studies in normal mice; type: in vivo, FVB mice; settings: for Blood uptake / Bone uptake / Brain uptake / Kidney uptake / Liver uptake: FVB mice, n = 3
Method: All animal procedures were approved by the Washington University Animal Studies Committee. Pharmacokinetics of ^18F-7B in brain and other critical tissues of normal male 12-week-old FVB (wild type (WT); 28 to 36 g) mice were determined as previously described. Briefly, ^18F-7B (740 kBq) was dissolved in 100-μL saline containing 10% ethanol. All animals were anesthetized by isofluorane inhalation and injected with radiotracer ^18F-7B (740 kBq, 100 μL) via bolus injection through a tail vein. Animals were sacrificed by cervical dislocation under anesthesia at 5, 30, 60, and 120 min after injection (n = 3 each). Blood samples were obtained by cardiac puncture, organs then harvested rapidly, and all tissue samples analyzed for γ-activity. Data are expressed as the percentage injected dose (%ID) per gram of tissue (tissue kBq (injected kBq)^−1 (g tissue)^−1 × 100).

AD homogenates = AD homogenates (Homo sapiens, UniProt P05067); test: Saturation radioligand binding to AD brain homogenates (insoluble fraction)
Method: Well-established literature procedures were used for preparation of AD homogenates. Grey matter was isolated from frozen postmortem frontal cortex tissue by dissection with a scalpel. To prepare insoluble fractions, dissected tissue was sequentially homogenized in four buffers (3 mL/g wet weight of tissue) with glass dounce tissue grinders (Kimble, Vineland, NJ, USA): 1) high salt (HS) buffer: 50 mM Tris-HCl pH 7.5, 750 mM NaCl, 5 mM EDTA; 2) HSbuffer with 1%Triton X-100; 3) HSbuffer with 1%Triton X-100 and 1 M sucrose; and 4) phosphate-buffered saline (PBS). Homogenates were centrifuged at 100,000×g; after each homogenization step, the pellet was resuspended, and homogenized in the next buffer in the sequence. For comparison in initial binding studies, unfractionated tissue homogenates were also prepared by homogenization of tissue in only PBS. Binding assays were performed using previously described methods. Briefly, a fixed concentration (1 μM/well) of Aβ1-42 fibrils was incubated for 1 h at 37°C with increasing concentrations of ^18F-7B (1.5 to 100 nM) in 30 mM Tris-HCl pH 7.4, 0.1% BSA in a reaction volume of 150 μL. A fixed ratio of hot:cold (^18F-7B and 7A) was used for all radioligand concentrations. The exact hot:cold (^18F-7B:7A) ratio was measured in each experiment by counting an aliquot of a sample (2 μL) of the radioligand preparation in a scintillation counter. Binding of ^18F-7B to human brain homogenates was assessed by incubating samples of insoluble fraction (5-μg insoluble protein/well) from AD subjects, with increasing concentrations of ^18F-7B (1.5 to 100 nM). Nonspecific binding was determined in parallel experiments utilizing 7A (2.5 μM) for Aβ1-42 fibrils and 7A (5 μM) for AD tissue as a competitor. Bound and free radioligand were separated by vacuum filtration through glass fiber 96-well filter plates (Millipore Multiscreen FB filter plate), followed by washes using ice-cold assay buffer (3 × 150 μL). Glass fiber filters containing the bound ligand were mixed with Optiphase Supermix scintillation cocktail (150 μL; PerkinElmer, Waltham, MA, USA) and counted immediately. All data were obtained in triplicate and analyzed by curve fitting to a one-site binding model using nonlinear regression employing Graphpad Prism software (version 4.0) to determine Kd and Bmax values. Bmax values were calculated in pmol/gram wet weight of brain tissue.

Sequence of AD homogenates (P05067 672-711 limits assumed): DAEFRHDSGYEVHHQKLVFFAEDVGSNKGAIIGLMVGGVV
T1 sequence (P05067 672-713 limits assumed): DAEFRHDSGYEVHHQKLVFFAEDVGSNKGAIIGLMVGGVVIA

Compound: CN(C)c1ccc(/C=C/c2nc3ccc(OCC[18F])cc3s2)cn1 [^18F-7B, (E)-5-(2-(6-(2-[^18F]-fluoroethoxy)-benzo[d]thiazol-2-yl)vinyl)-N,N-dimethylpyridin-2-amine]
- Bmax (Aβ1-42 fibrils): 6 pmol/nmol Aβ
- Kd (Aβ1-42 fibrils; one-site model): 61 nM
- Blood uptake ([1]; 5 min post i.v.): 3.18 ± 0.23 %ID/g
- Bone uptake ([1]; 5 min post i.v.): 1.61 ± 0.20 %ID/g
- Brain uptake ([1]; 5 min post i.v.): 7.23 ± 0.47 %ID/g
- Kidney uptake ([1]; 5 min post i.v.): 6.72 ± 0.44 %ID/g
- Liver uptake ([1]; 5 min post i.v.): 16.22 ± 1.43 %ID/g
- Blood uptake ([1]; 30 min post i.v.): 2.51 ± 0.09 %ID/g
- Bone uptake ([1]; 30 min post i.v.): 2.08 ± 0.13 %ID/g
- Brain uptake ([1]; 30 min post i.v.): 2.27 ± 0.13 %ID/g
- Kidney uptake ([1]; 30 min post i.v.): 2.83 ± 0.09 %ID/g
- Liver uptake ([1]; 30 min post i.v.): 5.21 ± 0.08 %ID/g
- Blood uptake ([1]; 60 min post i.v.): 2.40 ± 0.17 %ID/g
- Bone uptake ([1]; 60 min post i.v.): 3.41 ± 0.37 %ID/g
- Brain uptake ([1]; 60 min post i.v.): 2.00 ± 0.15 %ID/g
- Kidney uptake ([1]; 60 min post i.v.): 2.20 ± 0.07 %ID/g
- Liver uptake ([1]; 60 min post i.v.): 3.44 ± 0.20 %ID/g
- Blood uptake ([1]; 120 min post i.v.): 1.86 ± 0.05 %ID/g
- Bone uptake ([1]; 120 min post i.v.): 5.27 ± 0.34 %ID/g
- Brain uptake ([1]; 120 min post i.v.): 1.55 ± 0.01 %ID/g
- Kidney uptake ([1]; 120 min post i.v.): 1.59 ± 0.03 %ID/g
- Liver uptake ([1]; 120 min post i.v.): 2.73 ± 0.16 %ID/g
- brain uptake clearance ratio 5 min/120 min ([1]; %ID/g brain, normal mice): 4.66
- defluorination indicated by bone accumulation ([1]; as a function of time over 2 h, normal mice): slight defluorination
- fold higher affinity for AD homogenates compared with fibrils (AD homogenates; AD homogenates vs Aβ1-42 fibrils): 3.4 fold
- Bmax (AD homogenates; AD homogenates, one-site model): 1,432 pmol/g wet weight
- fold lower binding affinity to AD homogenates than Florbetapir (AD homogenates; comparator value from ref 11): 5 fold
- fold lower binding affinity to AD homogenates than Flutemetamol (AD homogenates; comparator value from ref 16): 2.6 fold
- fold lower BP than 11C-PIB (AD homogenates; homogenates, comparator from ref 28): 6 fold
- fold lower BP than 18F-Florbetaben (AD homogenates; homogenates, comparator from ref 36): 2 fold
- Kd (AD homogenates; saturable specific binding, one-site model, nonspecific binding with 7A (5 μM)): 17.7 nM
